Measurements: patent US20040005294A1, “IGFBP-3 in the diagnosis and treatment of cancer” (priority 2002, published 2004)

Key:
1198 and 1170-1 cells = assay: Apoptosis by TUNEL and DNA fragmentation, 1198 and 1170-1 cells; type: cell-based, human; conditions: treatment for 1 day
Method: […] Apoptosis was assessed by morphology, by a flow cytometry-based, modified terminal deoxynucleotidyl transferase dUTP nick end labeling (TUNEL) assay, and by the detection of fragmented DNA. For morphology, live cells were observed by light microscopy using a ×100 objective. For TUNEL analysis, both adherent and nonadherent cells were harvested and pooled, fixed with 1% paraformaldehyde and 70% ethanol, and processed using the APO-BrdU staining kit (Phoenix Flow Systems, San Diego, Calif.), a modified TUNEL assay, as described (Lee et al., 2002). Cells treated with DMSO were used to gate the control nonapoptotic populations and as a reference for cells treated with deguelin. An internal control (HL-60 cells treated with camptothecin to induce apoptosis) provided in the apoptosis detection kit was also used to ensure that the TUNEL reaction was occurring during the staining procedure. For the detection of fragmented nucleosomal DNA, cells were processed using the TACS apoptotic DNA laddering kit (Trevigen Inc., Gaithersburg, Md.), according to the manufacturer's recommended protocol.

1799 cells = assay: Immunoblot of apoptosis-related enzymes and Bcl family members; type: cell-based, human; conditions: 3 days
Method: Whole cell lysates from 1×10^6 cells were prepared in lysis buffer as described (Lonardo et al., 2002). Equivalent amounts of protein were resolved by sodium dodecyl sulfate (SDS)-polyacrylamide gels (7.5%-12%) and transferred to a nitrocellulose membrane. After the membrane was blocked in Tris-buffered saline (TBS) containing 0.05% Tween 20 (TBST) and 5% (w/v) nonfat powdered milk, the membrane was incubated with primary antibody at the appropriate dilution in TBS-5% nonfat milk at 4° C. for 16 h. The membrane was then washed multiple times with TBST and incubated with the appropriate horseradish peroxidaseconjugated secondary antibody for 1 h at room temperature. The protein-antibody complexes were detected by enhanced chemilurminescence (ECL kit; Amersham, Arlington Heights, Ill.), according to the manufacturer's recommended protocol.
The following antibodies and working dilutions were used for the Western blots: rabbit polyclonal antibodies against human phosphorylated Akt (pAkt) (Ser473) (1:1000), Akt (1:1000), phosphorylated glycogen synthase kinase 3β (pGSK-3β) (Ser9) (1:1000), and mouse monoclonal antibody against human antiphosphorylated MAPK (anti-pMAPK) (Thr202/Tyr204) (1:500) (Cell Signaling Technology, Beverly, Mass.); rabbit polyclonal anti-GSK-3α/β (1:1000) (BD Transduction Laboratories, Lexington, Ky.); rabbit polyclonal anti-Bax and anti-caspase-3 antibodies (1:2000) (Pharmingen, San Diego, Calif.); rabbit polyclonal anti-Bcl-2 (1:1000) and rabbit polyclonal antipoly(ADP-ribose) polymerase (PARP) antibody (1:1000) (VIC5; Roche Molecular Biochemicals, Indianapolis, Ind.); rabbit polyclonal anti-hemagglutinin (HA) antibody (1:1000), goat polyclonal antibodies against extracellular related kinase 1(Erk-1; 1:1000), Erk-2 (1:1000), and β-actin (1:4000) (Santa Cruz Biotechnology, Inc., Santa Cruz, Calif.); rabbit anti-mouse immunoglobulin G (IgG)-horseradish peroxidase conjugate (1:2000) (DAKO, Carpinteria, Calif.); and donkey anti-rabbit IgG-horseradish peroxidase conjugate (1:2000) and rabbit anti-goat IgG-horseradish peroxidase conjugate (1:2000) (Amersham Pharmacia Biotech, Arlington Heights, Ill.).

With `COc1cc2c(cc1OC)[C@@H]1C(=O)c3ccc4c(c3O[C@@H]1CO2)C=CC(C)(C)O4` [deguelin, Deguelin] the apoptotic events (1198 and 1170-1 cells) was “did not induce detectable apoptotic events”, the caspase-3 activation (1799 cells; 10^−8 M or 10^−7 M) was “activated caspase-3” and the Bax level (1799 cells) was “dose dependent increase in the level of Bax”. The Bcl-2 expression (1799 cells) was “slight decrease in Bcl-2 expression” and the Bcl-xL level (1799 cells) was “did not affect the level of Bcl-xL”.
